Test results reported in patent publication US8697694B2, “Substituted pyridine and pyrimidine derivatives and their use in treating viral infections” (priority 2008, dated 2014).

system: HCV replicon cells; assay: Cell-based HCV replicon assay (replicon RNA level by real time PCR, Taqman); settings: Hepatitis C virus, 72 h, HCV replicon cells, replicon RNA level by real time PCR (Taqman), day 3; calculated EC90; read-out: EC90 (μM) range
Method in brief: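 Readout: ΔCT between NS5B replicon RNA and GAPDH by real-time RT-PCR in lysates harvested on day 3, fitted sigmoidally; EC50 at ΔCT=1, EC90 at ΔCT=3.2. Compounds tested at ten 2-fold dilutions from 25 μM to 1 μM start, 10% FBS, 0.5% DMSO.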

**Q.** For `Cc1nc(NCC(O)c2ccccc2)nc(N[C@@H]2C[C@H](CO)[C@@H](O)[C@H]2O)c1-c1nc2ccccc2s1` (stereo partly shown) [Example 1919], which EC90 is on record?
**A.** The EC90 was 0.5 to 5 µM.

**Q.** For `Cc1nc(NCC(F)(F)F)nc(N[C@@H]2C[C@H](CO)[C@@H](O)[C@H]2O)c1-c1nc2cnccc2o1` [Example 2001], which EC90 is on record?
**A.** The EC90 was 0.5 to 5 µM.

**Q.** With `Cc1nc(NCC(F)(F)F)nc(N[C@@H]2C[C@H](CO)[C@H]3OC(C)(C)O[C@H]32)c1-c1nc2cnccc2o1` [Example 2002] as the compound, how does the EC90 read?
**A.** Its EC90 is greater than 5 µM.

**Q.** How did the EC90 turn out when `Cc1nc(NCC2CC2)nc(N[C@@H]2C[C@H](CO)[C@@H](O)[C@H]2O)c1-c1nc2cnccc2o1` [Example 2003] was run?
**A.** Its EC90 is 0.5 to 5 µM.

**Q.** `Cc1ccc([C@H](Nc2nc(C)c(-c3nc4ccccc4s3)c(N[C@@H]3C[C@H](CO)[C@H]4OC(C)(C)O[C@H]43)n2)C(F)(F)F)cc1` [Example 2004] was tested. Which EC90 did it give?
**A.** The EC90 was 0.5 to 5 µM.

**Q.** For `Cc1ccc([C@H](Nc2nc(C)c(-c3nc4ccccc4s3)c(N[C@@H]3C[C@H](CO)[C@@H](O)[C@H]3O)n2)C(F)(F)F)cc1` [Example 2005], which EC90 is on record?
**A.** The EC90 was 0.5 to 5 µM.

**Q.** Which EC90 does the source give for `Cc1nc(NCC(F)(F)F)nc(N[C@@H]2C[C@H](CO)[C@H]3OC(C)(C)O[C@H]32)c1-c1nc2ncccc2o1` [Example 2006] here?
**A.** Its EC90 is 0.5 to 5 µM.

**Q.** For `Cc1ccc(CNc2nc(C)c(-c3nc4ncccc4o3)c(N[C@@H]3C[C@H](CO)[C@@H](O)[C@H]3O)n2)cc1` [Example 2007], which EC90 is on record?
**A.** Its EC90 is less than 0.5 µM.

**Q.** With `Cc1nc(NCC(F)(F)F)nc(N[C@@H]2C[C@H](CO)[C@@H](O)[C@H]2O)c1-c1nc2ncccc2o1` [Example 2008] as the compound, how does the EC90 read?
**A.** The EC90 was 0.5 to 5 µM.

**Q.** With `COc1cc(CCNc2nc(C)c(-c3nc4cnccc4s3)c(N[C@@H]3C[C@H](CO)[C@H]4OC(C)(C)O[C@H]43)n2)cc(OC)c1` [Example 2009] as the compound, how does the EC90 read?
**A.** The EC90 was less than 0.5 µM.

**Q.** `COc1cc(CCNc2nc(C)c(-c3nc4cnccc4s3)c(N[C@@H]3C[C@H](CO)[C@@H](O)[C@H]3O)n2)cc(OC)c1` [Example 2010] was tested. Which EC90 did it give?
**A.** Its EC90 is less than 0.5 µM.

**Q.** `Cc1nc(NCCc2ccc(C(C)(C)C)cc2)nc(N[C@@H]2C[C@H](CO)[C@H]3OC(C)(C)O[C@H]32)c1-c1nc2cnccc2s1` [Example 2011] was tested. Which EC90 did it give?
**A.** The EC90 was greater than 5 µM.

**Q.** Which EC90 does the source give for `Cc1nc(NCCc2ccc(C(C)(C)C)cc2)nc(N[C@@H]2C[C@H](CO)[C@@H](O)[C@H]2O)c1-c1nc2cnccc2s1` [Example 2012] here?
**A.** The EC90 was less than 0.5 µM.

**Q.** Which EC90 does the source give for `Cc1nc(N[C@@H](C2CC2)C(F)(F)F)nc(N[C@@H]2C[C@H](CO)[C@@H](O)[C@H]2O)c1-c1nc2ccccc2s1` [Example 2013] here?
**A.** The EC90 was 0.5 to 5 µM.

same assay, conditions: Hepatitis C virus, 72 h, HCV replicon cells, replicon RNA level by real time PCR, harvested day 3; read-out: EC90 (μM) range

**Q.** Which EC90 does the source give for `Cc1nc(NC2CC2)nc(N[C@@H]2CC[C@@H](O)[C@@]2(C)O)c1-c1nc2cnccc2s1` [Example 1820] here?
**A.** The EC90 was 0.5 to 5 µM.

**Q.** Which EC90 does the source give for `Cc1nc(NCc2ccc(F)cc2F)nc(N[C@@H]2CC[C@@H](O)[C@@]2(C)O)c1-c1nc2cnccc2s1` [Example 1821] here?
**A.** Its EC90 is less than 0.5 µM.

**Q.** How did the EC90 turn out when `Cc1nc(C(N)=O)nc(N[C@@H]2C[C@H](CO)[C@H]3OC(C)(C)O[C@H]32)c1-c1nc2ccccc2s1` [Example 1902] was run?
**A.** Its EC90 is greater than 5 µM.

**Q.** Which EC90 does the source give for `Cc1nc(C(N)=O)nc(N[C@@H]2C[C@H](CO)[C@@H](O)[C@H]2O)c1-c1nc2ccccc2s1` [Example 1903] here?
**A.** Its EC90 is greater than 5 µM.

**Q.** Which EC90 does the source give for `Cc1nc(C#N)nc(N[C@@H]2C[C@H](CO)[C@@H](O)[C@H]2O)c1-c1nc2ccccc2s1` [Example 1904] here?
**A.** Its EC90 is greater than 5 µM.

**Q.** How did the EC90 turn out when `Cc1nc(N)nc(N[C@@H]2C[C@H](COS(C)(=O)=O)[C@@H](O)[C@H]2O)c1-c1nc2ccccc2s1` [Example 1905] was run?
**A.** Its EC90 is 0.5 to 5 µM.

**Q.** `C=CCNc1nc(C)c(C2=NC3=C=CC=CC3S2)c(N[C@@H]2C[C@H](CO)[C@@H](O)[C@H]2O)n1` (stereo partly shown) [Example 1906] was tested. Which EC90 did it give?
**A.** Its EC90 is 0.5 to 5 µM.

**Q.** `COc1nc(C)c(-c2nc3ccccc3s2)c(N[C@@H]2C[C@H](CO)[C@@H](O)[C@H]2O)n1` [Example 1907] was tested. Which EC90 did it give?
**A.** The EC90 was 0.5 to 5 µM.

**Q.** `Cc1nc(NCc2cc3cnn(C(=O)OC(C)(C)C)c3cc2F)nc(N[C@@H]2C[C@H](CO)[C@H]3OC(C)(C)O[C@H]32)c1-c1nc2ccccc2s1` [Example 1908] was tested. Which EC90 did it give?
**A.** Its EC90 is 0.5 to 5 µM.

**Q.** For `Cc1nc(NCc2cc3cn[nH]c3cc2F)nc(N[C@@H]2C[C@H](CO)[C@@H](O)[C@H]2O)c1-c1nc2ccccc2s1` [Example 1909], which EC90 is on record?
**A.** Its EC90 is less than 0.5 µM.

**Q.** For `Cc1nc(NCc2c(F)cccc2F)nc(N[C@@H]2C[C@H](CO)[C@@H](O)[C@H]2O)c1-c1nc2ccccc2s1` [Example 1910], which EC90 is on record?
**A.** The EC90 was less than 0.5 µM.

**Q.** Which EC90 does the source give for `Cc1nc(NCc2cc3cn[nH]c3cc2F)nc(N[C@@H]2C[C@H](CO)[C@@H](O)[C@H]2O)c1-c1nc2cnccc2s1` [Example 1911] here?
**A.** Its EC90 is less than 0.5 µM.

**Q.** Which EC90 does the source give for `Cc1nc(NCc2ccc3[nH]cnc3c2)nc(N[C@@H]2C[C@H](CO)[C@@H](O)[C@H]2O)c1-c1nc2ccccc2s1` [Example 1912] here?
**A.** The EC90 was less than 0.5 µM.

**Q.** For `COc1ccc(CCNc2nc(C)c(-c3nc4cnccc4s3)c(N[C@@H]3C[C@H](CO)[C@@H](O)[C@H]3O)n2)cc1Cl` [Example 1913], which EC90 is on record?
**A.** Its EC90 is 0.5 to 5 µM.

**Q.** With `Cc1nc(NCCc2ccc(Cl)c(Cl)c2)nc(N[C@@H]2C[C@H](CO)[C@@H](O)[C@H]2O)c1-c1nc2cnccc2s1` [Example 1914] as the compound, how does the EC90 read?
**A.** The EC90 was less than 0.5 µM.

**Q.** How did the EC90 turn out when `CC(=O)OC[C@H]1C[C@@H](Nc2nc(N)nc(C)c2-c2nc3ccccc3s2)[C@H](O)[C@@H]1O` [Example 1915] was run?
**A.** Its EC90 is greater than 5 µM.

**Q.** For `Cc1nc(CN)nc(N[C@@H]2C[C@H](CO)[C@@H](O)[C@H]2O)c1-c1nc2ccccc2s1` [Example 1916], which EC90 is on record?
**A.** The EC90 was greater than 5 µM.

**Q.** For `Cc1nc(NS(C)(=O)=O)nc(N[C@@H]2C[C@H](CO)[C@@H](O)[C@H]2O)c1-c1nc2ccccc2s1` [Example 1917], which EC90 is on record?
**A.** Its EC90 is greater than 5 µM.

**Q.** For `Cc1nc(NCC(O)c2ccccc2)nc(N[C@@H]2C[C@H](CO)[C@@H](O)[C@H]2O)c1-c1nc2cnccc2s1` (stereo partly shown) [Example 1918], which EC90 is on record?
**A.** The EC90 was less than 0.5 µM.

same assay, conditions: Hepatitis C virus, 72 h, read-out: EC90 (μM) range

**Q.** `Cc1nc(C#N)nc(N[C@@H]2C[C@H](CO)[C@H]3OC(C)(C)O[C@H]32)c1-c1nc2ccccc2s1` [Example 1901] was tested. Which EC90 did it give?
**A.** Its EC90 is greater than 5 µM.
